# According to paper PMC5225183, “Fingerprinting of neurotoxic compounds using a mouse embryonic stem cell dual luminescence reporter assay” (Archives of Toxicology, 2016):
# Like-named read-outs stand apart in the source and are kept apart here. Marks after values point to notes of the source that are not given here. Square brackets hold non-standard residues; d marks the D form. Peptide text beside a SMILES is read from it. * marks the point of attachment. Fmoc = O=C(OCC1c2ccccc2-c2ccccc21)*; Cha = N[C@@H](CC1CCCCC1)C(=O)O; AMC = Cc1cc(=O)oc2cc(N*)ccc12
# Experiments:
# [1] = system: Tubulin α1 (Tα1) promoter; assay: cells
# Text: (§1) Dual luciferase expressing CGR8-2Luc cells were obtained by transduction of mouse ESC CGR8 cells with the 2K7 EFS-Renilla Luciferase (RLuc)/Talpha1-Firefly Luciferase (FLuc) vector as previously described (Suter et al. [2006], [2009]); EFS corresponds to the short promoter of the eukaryotic translation elongation factor 1 alpha (EF1α), and Talpha1 to the Tubulin α1 (Tα1) promoter. Tα1 was selected as a promoter active in neurons, including early stages of neural differentiation. EF1α was originally selected to function as a constitutive promoter; however, it responds to cellular differentiation as well as to various chemicals, as previously shown (Kern et al. [2013]). Cells were cultured on 0.1 % gelatin-coated dishes in CGR8-2luc maintenance medium: BHK21 medium, supplemented with 10 % fetal calf serum, L-glutamine, non-essential amino acids, penicillin/streptomycin, and leukemia inhibitory factor (LIF). CGR8 cells were grown in a feeder-independent manner (embryonic pluripotent stem cells, ESCs) as described in protocol 1 (Fig. 1) before testing compounds of interest.
# (§2) Fig. 1 Synopsis of experimental protocols. The impact of compounds on neural promoter activity (FLuc, Firefly Luciferase under the control of the Tα1 promoter), general promoter activity (RLuc, Renilla Luciferase under the control of the EF1α promoter), and amount of DNA (PI, propidium iodide fluorescence in cell homogenates) was investigated in undifferentiated mouse embryonic pluripotent stem cells (ESCs) and on ESC-derived neurons. Arrows indicate the time of measurement of the three parameters. a Protocol for testing compounds effects on ESCs. CGR8-2Luc cells were plated on gelatin-coated 96-well plates in maintenance medium (BHK21 medium containing 10 % FCS, L-glutamine, NEAA, P/S, and LIF). Twenty-four hours later, cells were exposed to compounds for forty-eight hours. b Protocol for testing compounds on ESC-derived neurons. CGR8-2Luc cells were co-cultured with MS5 cells to induce neural differentiation in DMEM medium containing 15 % KO-serum, NEAA, β-mercaptoethanol, and P/S. On day 5, cells were detached and seeded on polyornithine-coated plates in DMEM medium containing N2 supplement, bFGF, and P/S; compound exposure was from day 6 to day 8
# (§3) To test compounds on ESC-derived neurons, neuronal differentiation was carried out as previously described (Suter et al. [2009]; Xu et al. [2014]). Briefly, CGR8-2Luc cells were seeded on irradiated bone marrow-derived stromal MS5 cells and cultivated for 4 days in DMEM medium containing 15 % Knock-out™ Serum Replacement, non-essential amino acids, beta-mercaptoethanol, and penicillin/streptomycin. At day 5, cells were then re-plated (3 × 10^5 cells/cm^2) on polyornithine-coated 96-well plates in N2 medium containing DMEM, N2 supplement, penicillin/streptomycin, and 10 ng/ml basic human fibroblast growth factor (bFGF) (Invitrogen). […] To assess toxicity of compounds on undifferentiated pluripotent stem cells (ESCs), CGR8-2Luc cells were plated at 45,000 cells/cm^2 on 0.1 % gelatin-coated dishes in BHK21 medium, supplemented with 10 % fetal calf serum, L-glutamine, non-essential amino acids, penicillin/streptomycin, and leukemia inhibitory factor (LIF). After 24 h, compounds were added and incubated for 48 h, before luciferase expression and PI fluorescence were analyzed. In all experiments, methylmercury was used as a positive control at a concentration of 5 µM.
# (§4) Luciferase activities were measured with a Dual-Luciferase™ Reporter system kit. CGR8-2Luc ES cells were lysed in 96-well plates according to the manufacturer’s instructions. Luminescence measurements were performed on a Fluostar Optima reader. Luminescence counts were expressed as percentage of promoter activity normalized by comparison with the control wells treated by DMSO.
# EF1α promoter = system: EF1α promoter
# Text: as §1, §2, §3, §4
# [2] = system: Tubulin α1 (Tα1) promoter
# Text: as §1, §2, §3, §4
# [3] = ref Dewland et al. ([2009]); cited from earlier work
# [4] = system: ESCs and ESC-derived neurons; assay: Dual luminescence reporter test system, all readouts in ESCs and ESC-derived neurons
# Text: as §2, with “neurons.” for “neurons. CGR8-2Luc cells were co-cultured with MS5 cells to induce neural differentiation in DMEM medium containing 15 % KO-serum, NEAA, β-mercaptoethanol, and P/S. On day 5, cells were detached and seeded on polyornithine-coated plates in DMEM medium containing N2 supplement, bFGF, and P/S; compound exposure was from day 6 to day 8”
# as §3, with “At” for “To test compounds on ESC-derived neurons, neuronal differentiation was carried out as previously described (Suter et al. [2009]; Xu et al. [2014]). Briefly, CGR8-2Luc cells were seeded on irradiated bone marrow-derived stromal MS5 cells and cultivated for 4 days in DMEM medium containing 15 % Knock-out™ Serum Replacement, non-essential amino acids, beta-mercaptoethanol, and penicillin/streptomycin. At”
# Luciferase activities were measured with a Dual-Luciferase™ Reporter system kit. CGR8-2Luc ES cells were lysed in 96-well plates according to the manufacturer’s instructions. Luminescence measurements were performed on a Fluostar Optima reader. Luminescence counts were expressed as percentage of promoter activity normalized by comparison with the control wells treated by DMSO. […] parameters were measured in homogenates of ESCs and in ESC-derived neurons: (1) FLuc, reflecting the activity of early neural promoter Tα1. FLuc increases during neuronal differentiation. Many neurotoxic compounds may affect FLuc expression, either through impact on neuronal differentiation, through changes of neuronal gene expression, or through killing of neurons.
# (§5) PI was added to cell homogenates after the luciferase test, at a final concentration of 50 µg/ml and incubated for 2 h. After incubation, fluorescence intensity was measured on a Flexstation 3 microplate reader (Excitation: 544 nm ± 15 nm; Emission: 620 nm ± 15 nm). Results are expressed as percentage of control. Propidium iodide (PI) measures total DNA content as an approximation of the cell number. A decrease in PI fluorescence was interpreted as a decrease in cell number and therefore throughout the text referred to as cytotoxicity.
# To describe the shape of different concentration–response curves, arbitrary scores were assigned as follows: 0 for “no change,” 1 for “down-stroke,” 2 for “bimodal profile,” and 3 for “up-stroke” (Fig. S1). A curve was classified as “down-stroke” or “up-stroke” if the change in response values comparative to control was statistically significant (p value <0.05, one-way ANOVA with post hoc Dunnett) with an additional requirement of a 30 % decrease or increase of mean response value relative to controls, respectively. If the absolute change in mean response values was below 30 % the curve was classified as “no change.” A curve was classified as “bimodal” if first up-stroke and subsequently down-stroke was observed.
# CGR8-2Luc ESCs = system: CGR8-2Luc ESCs
# Text: as §2, §3
# as §5, with “After measurement of luciferase activity, DNA quantity was determined by PI assay, as previously described (Xu et al. [2014]). PI was” for “PI was”
# (§6) Lowest adverse effect level (LOAEL) was defined as the lowest tested concentrations that lead to a statistically significant decrease for a given read-out (FLuc, RLuc, and PI) compared to baseline. “Baseline” was not in all cases defined by untreated cells, but may also refer to, e.g., a state of increased activity due to low, non-toxic compound concentrations.
# ESC-derived neurons = system: ESC-derived neurons
# Text: as §2, §3
# as §5, with “After measurement of luciferase activity, DNA quantity was determined by PI assay, as previously described (Xu et al. [2014]). PI was” for “PI was”
# as §6
# [5] = ESC-derived neurons, 48 h exposure
# [6] = undifferentiated ESCs, 48 h exposure
# [7] = undifferentiated ESCs, 48 h exposure, lowest tested concentration with statistically significant decrease
# [8] = undifferentiated ESCs, 48 h exposure, PI assay (cytotoxicity)
# [9] = ESC-derived neurons, 48 h exposure, PI assay (cytotoxicity)
Compound,"LOAEL Neurons Tα1 [1, 5] [µM]",LOAEL Neurons EF1α (EF1α promoter; [5]) [µM],LOAEL ESC EF1α (EF1α promoter; [6]) [µM],"LOAEL ESC Tα1 [2, 7] [µM]",Concentration in humans [3],result in the dual luminescence reporter test system [4],"Number of non-cytotoxic changes ([4]; mouse, 48 h)",LOAEL ESC DNA (CGR8-2Luc ESCs; [8]) [µM],LOAEL Neurons DNA (ESC-derived neurons; [9]) [µM],LOAEL Neurons Tα1 ([1]; mouse) [µM],LOAEL ESC EF1α (EF1α promoter; mouse) [µM],LOAEL Neurons EF1α (EF1α promoter; mouse) [µM],LOAEL ESC Tα1 ([2]; mouse) [µM],"result in the dual luminescence reporter test system ([4]; ESCs and neurons, FLuc, RLuc, PI)",LOAEL ESC DNA (CGR8-2Luc ESCs; mouse) [µM],LOAEL Neurons DNA (ESC-derived neurons; mouse) [µM],"Number of non-cytotoxic changes ([4]; reporter activity changes in the non-cytotoxic concentration range, highest possible number 4)"
CC(C)Cc1ccc(C(C)C(=O)O)cc1 (centres unmarked) [Ibuprofen],>50,>50,>50,>50,150^a µM,negative,0,>50,>50,–,–,–,–,–,–,–,–
COc1cccc2c1C(=O)c1c(O)c3c(c(O)c1C2=O)C[C@@](O)(C(=O)CO)C[C@@H]3O[C@H]1C[C@H](N)[C@H](O)[C@H](C)O1 [Doxorubicin],0.005,0.005,0.005,0.005,–,"strongly decreased the neuronal and general reporter activities, as well as the cell number",0,0.005,0.005,–,–,–,–,–,–,–,–
CC(C1CC1)C(O)(Cn1cncn1)c1ccc(Cl)cc1 (centres unmarked) [Cyproconazole],>50,>50,>50,>50,–,did not give a signal,0,>50,>50,–,–,–,–,–,–,–,–
CCCc1nn(C)c2c(=O)[nH]c(-c3cc(S(=O)(=O)N4CCN(C)CC4)ccc3OCC)nc12 [Sildenafil],>50,>50,>50,>50,–,–,0,>50,>50,–,–,–,–,–,–,–,–
CC(C)(C)C(=O)C(Oc1ccc(Cl)cc1)n1cncn1 (centres unmarked) [Triadimefon],–,–,–,–,–,relatively weak responses,–,–,–,>50,>50,50,50,potentially neurotoxic,>50,>50,–
Cc1cc(=O)oc2cc(NC(=O)[C@H](CCCCN)NC(=O)[C@H](CC3CCCCC3)NC(=O)OCC3c4ccccc4-c4ccccc43)ccc12 [Galnon] (Fmoc-[Cha]-Lys-{AMC}),5,5,20,20,–,–,–,20,>20,–,–,–,–,–,–,–,2
